The subject of data set [1] is Salmonella typhimurium TA1537. Put plainly: Ames test (reverse mutation test), TA1537. The settings on record: for Number of revertant colonies: TA1537; for Number of revertant colonies TA1537: S9 Mix +, mean number of each plate. The procedure: (§1) Metabolites 1, 3, and 5 and Metabolites C to H were each tested herein. The purpose of this test is to evaluate the potential of each metabolite to induce reverse mutations in the standard strains of Salmonella typhimurium (TA98, TA1537, TA100, and TA1535) and Escherichia coli (WP2uvrA), in either the presence or absence of a rat liver metabolic activation system (S9 mix).
(§2) The solvent used herein was dimethyl sulfoxide (DMSO, 100 μL/plate).
(§3) The test was performed by the pre-incubation method with or without S9 mix. When the test was performed without S9 mix, sodium phosphate buffer solution (pH 7.4) was added.
(§4) 0.5 mL of S9 mix or 0.5 mL of 0.1 mol/L sodium phosphate buffer solution (pH 7.4), and 0.1 mL of the bacterial culture solution were added to a test tube containing 0.1 mL of the negative control formulation (DMSO alone), the metabolite, or the positive control formulation. The mixtures were pre-incubated at 37° C. for 20 minutes while shaking. After the pre-incubation period, 2 mL of top agar were added and the mixtures were vortex-mixed and seeded onto plates. Two plates per treatment were used. Each plate was incubated at 37±1° C. for 48 hours or more and the revertant colonies were counted. The mean number of revertant colonies for each treatment plate was then calculated. […] Evaluation was based on mean values with no statistical comparisons being used.
In general terms: The Ames test detects mutagens through reverse mutation in bacteria.

Data set [2] deals with Salmonella typhimurium TA1535. Put plainly: Ames test (reverse mutation test), TA1535. The procedure:
as §1, §2, §3, §4

Data set [3] relates to Salmonella typhimurium TA98. Put plainly: Ames test (reverse mutation test), TA98. The settings on record: for Number of revertant colonies: TA98; for Number of revertant colonies TA98: S9 Mix +, mean number of each plate. The protocol:
as §1, §2, §3, §4

A further data set deals with Escherichia coli WP2uvrA. Put plainly: Ames test (reverse mutation test), WP2uvrA. Format: cell-based. The settings on record: for Number of revertant colonies: WP2uvrA; for Number of revertant colonies WP2uvrA: S9 Mix +, mean number of each plate.
For data set [4], the system named is Salmonella typhimurium TA100. Put plainly: Ames test (reverse mutation test), TA100. The conditions noted are these: for Number of revertant colonies: TA100; for Number of revertant colonies TA100: S9 Mix +, mean number of each plate. The procedure:
as §1, §2, §3, §4

Several values for one entry are separate records, joined by “and”; a condition that tells them apart may be missing. Identical values can stand only once. Marks after values point to notes of the source that are not given here.

Take `Nc1ccc2cc3ccccc3cc2c1` [Example 2AA, 2-Aminoanthracene, reference compound]: the “Number of revertant colonies” value in data set [1] (S9 mix +, 2 μg/plate (positive control)) is 135; in data set [2] (S9 mix +, 2.0 μg/plate (positive control)), 223 and 146 and 250; in data set [3] (S9 mix +, 0.5 μg/plate (positive control)), 289.

Turning to `Cl.Nc1c2ccccc2nc2ccccc12.O` [Example 9AA, 9-Aminoacridine hydrochloride monohydrate, reference compound], the “Number of revertant colonies” value in data set [1] (S9 mix −, 80 μg/plate (positive control)) came to 372.

`CC(C)(C)Oc1cc(F)cc(-c2cc(N)nn2C(F)(F)F)c1` [Metabolite 1]: the “Number of revertant colonies” value with Escherichia coli WP2uvrA (S9 mix +, 185 μg/plate) is recorded as 16*; in the data set with Escherichia coli WP2uvrA (S9 mix +, 556 μg/plate), 18*; in the data set on Escherichia coli WP2uvrA (S9 mix +, 1667 μg/plate), 9*; in the data set on Escherichia coli WP2uvrA (S9 mix +, 5000 μg/plate), 0*; in the data set on Escherichia coli WP2uvrA (S9 mix −, 185 μg/plate), 15*; with Escherichia coli WP2uvrA (S9 mix −, 556 μg/plate), 8*. The “Number of revertant colonies” value in the data set on Escherichia coli WP2uvrA (S9 mix −, 1667 μg/plate) was 5*; with Escherichia coli WP2uvrA (S9 mix −, 5000 μg/plate) it was 0*; in data set [1] (S9 mix +, 185 μg/plate) it was 2*; in data set [1] (S9 mix +, 556 μg/plate) it was 0*; in data set [1] (S9 mix +, 1667 μg/plate), 0*; in data set [1] (S9 mix +, 5000 μg/plate) it was 0*. In addition, the “Number of revertant colonies” value in data set [1] (S9 mix −, 185 μg/plate) was 0*; in data set [1] (S9 mix −, 556 μg/plate), 0*; in data set [1] (S9 mix −, 1667 μg/plate), 0*; in data set [1] (S9 mix −, 5000 μg/plate), 0*; in data set [2] (S9 mix +, 185 μg/plate), 5*; in data set [2] (S9 mix +, 556 μg/plate) it was 4*. The “Number of revertant colonies” value in data set [2] (S9 mix +, 1667 μg/plate) is 4*; in data set [2] (S9 mix +, 5000 μg/plate) it was 2*; in data set [2] (S9 mix −, 185 μg/plate), 0*; in data set [2] (S9 mix −, 556 μg/plate) it was 0*; in data set [2] (S9 mix −, 1667 μg/plate), 0*; in data set [2] (S9 mix −, 5000 μg/plate) it was 0*. The “Number of revertant colonies” value in data set [4] (S9 mix +, 185 μg/plate) was 78*; in data set [4] (S9 mix +, 556 μg/plate), 59*; in data set [4] (S9 mix +, 1667 μg/plate), 50*; in data set [4] (S9 mix +, 5000 μg/plate), 52*; in data set [4] (S9 mix −, 185 μg/plate), 38*; in data set [4] (S9 mix −, 556 μg/plate), 0*. The “Number of revertant colonies” value in data set [4] (S9 mix −, 1667 μg/plate) is recorded as 0*; in data set [4] (S9 mix −, 5000 μg/plate), 0*; in data set [3] (S9 mix +, 185 μg/plate) it was 16*; in data set [3] (S9 mix +, 556 μg/plate), 15*; in data set [3] (S9 mix +, 1667 μg/plate), 13*; in data set [3] (S9 mix +, 5000 μg/plate), 13*. Besides, the “Number of revertant colonies” value in data set [3] (S9 mix −, 185 μg/plate) is on record as 9*; in data set [3] (S9 mix −, 556 μg/plate) it was 0*; in data set [3] (S9 mix −, 1667 μg/plate), 0*; in data set [3] (S9 mix −, 5000 μg/plate), 0*.

`Nc1cc(-c2cc(F)cc(OC(F)(F)F)c2)n(-c2cncc(C(F)(F)F)c2)n1` [Metabolite 5]: the “Number of revertant colonies” value is recorded as 9 in data set [2] (S9 mix +, 185 μg/plate); 9 in data set [2] (S9 mix −, 6.9 μg/plate); 6 in data set [2] (S9 mix −, 556 μg/plate).

`CC(C)(OCc1cc(F)cc(-c2cc(N)nn2-c2ccc(F)cc2)c1)C(F)(F)F` [Metabolite D, reference compound]: the “Number of revertant colonies WP2uvrA” value with Escherichia coli WP2uvrA (dose 2.3 μg/plate) is 31; with Escherichia coli WP2uvrA (dose 21 μg/plate), 24; in the data set on Escherichia coli WP2uvrA (dose 185 μg/plate) it was 23; in the data set on Escherichia coli WP2uvrA (dose 556 μg/plate) it was 32; in the data set with Escherichia coli WP2uvrA (dose 1667 μg/plate), 28; in the data set on Escherichia coli WP2uvrA (dose 5000 μg/plate), 28. The “Number of revertant colonies TA1537” value in data set [1] (dose 2.3 μg/plate) was found to be 14; in data set [1] (dose 6.9 μg/plate), 20; in data set [1] (dose 62 μg/plate), 18; in data set [1] (dose 185 μg/plate) it was 15; in data set [1] (dose 556 μg/plate) it was 15; in data set [1] (dose 1667 μg/plate), 19. Also, in data set [1] (dose 5000 μg/plate), the “Number of revertant colonies TA1537” value came out at 24. The “Number of revertant colonies TA100” value in data set [4] (dose 2.3 μg/plate) is on record as 139; in data set [4] (dose 6.9 μg/plate), 203; in data set [4] (dose 21 μg/plate) it was 237; in data set [4] (dose 62 μg/plate), 185; in data set [4] (dose 185 μg/plate), 151; in data set [4] (dose 556 μg/plate), 119. Besides, the “Number of revertant colonies TA100” value in data set [4] (dose 1667 μg/plate) is on record as 100. Besides, the “Number of revertant colonies TA98” value in data set [3] (dose 2.3 μg/plate) was determined as 39; in data set [3] (dose 6.9 μg/plate), 42; in data set [3] (dose 21 μg/plate) it was 52; in data set [3] (dose 62 μg/plate), 47; in data set [3] (dose 185 μg/plate), 49; in data set [3] (dose 556 μg/plate), 51. The “Number of revertant colonies TA98” value in data set [3] (dose 1667 μg/plate) is on record as 57; in data set [3] (dose 5000 μg/plate) it was 88.
